Experimental data reported in ChEMBL document CHEMBL5634141 (Eur J Med Chem, 2023).
Active and inactive are the calls of the source. No cut-off for these calls is given here.

Experiments:
MIA PaCa-2 [1] = experiment: Induction of apoptosis in human MIA PaCa-2 cells assessed as early apoptotic cells at 100 nM incubated for 48 hrs by Annexin V-FITC staining based flow cytometry analysis (reference value: 1.55 %); format: functional
[2] = tested on: von Hippel-Lindau disease tumor suppressor/GTPase KRas (Homo sapiens), P01116+P40337 [G12C]; experiment: PROTAC activity at VHL/KRAS G12C mutant in human NCI-H358 cells assessed as induction of protein degradation at 100 nM incubated for 48 hrs followed by compound washout and measured after 48 hrs by Western blotting analysis; format: cell-based
Calu-1 [3] = experiment: Antiproliferative activity against human Calu-1 cells expressing KRAS G12C mutant assessed as relative cell viability at 30 nM incubated for 72 hrs in presence of daclolisib by CCK-8 assay; format: functional; settings: read-out: Activity
Calu-1 [4] = experiment: Antiproliferative activity against human Calu-1 cells expressing KRAS G12C mutant assessed as relative cell viability at 30 nM incubated for 72 hrs in presence of selumetinib by CCK-8 assay; format: functional; settings: read-out: Activity
NCI-H358 [5] = experiment: Antiproliferative activity against human NCI-H358 cells expressing KRAS G12C mutant assessed as relative cell viability at 30 nM incubated for 72 hrs in presence of MK-2206 by CCK-8 assay; format: functional; settings: read-out: Activity
NCI-H358 [6] = experiment: Induction of apoptosis in human NCI-H358 cells assessed as necrotic cells at 100 nM incubated for 48 hrs by Annexin V-FITC staining based flow cytometry analysis (reference value: 1.62 %); format: functional
[7] = tested on: von Hippel-Lindau disease tumor suppressor/GTPase KRas (Homo sapiens), P01116+P40337 [G12C]; experiment: PROTAC activity at VHL/KRAS G12C mutant in human MIA PaCa-2 cells assessed as induction of protein degradation in presence of MLN4924 by Western blot analysis; format: cell-based
NCI-H23 [8] = experiment: Antiproliferative activity against human NCI-H23 cells expressing KRAS G12C mutant assessed as relative cell viability at 30 nM incubated for 72 hrs in presence of naporafenib by CCK-8 assay; format: functional; settings: read-out: Activity
[9] = Cmax in ICR mouse at 30 mg/kg, ip measured after 24 hrs by LC-MS/MS analysis; format: ADME, organism-based; settings: in vivo
Calu-1 [10] = experiment: Antiproliferative activity against human Calu-1 cells expressing KRAS G12C mutant assessed as relative cell viability at 30 nM incubated for 72 hrs by CCK-8 assay; format: functional; settings: Calu-1, read-out: Activity
NCI-H358 [11] = experiment: Antiproliferative activity against human NCI-H358 cells expressing KRAS G12C mutant assessed as relative cell viability at 30 nM incubated for 72 hrs in presence of daclolisib by CCK-8 assay; format: functional; settings: read-out: Activity
NCI-H23 [12] = experiment: Antiproliferative activity against human NCI-H23 cells expressing KRAS G12C mutant assessed as relative cell viability at 30 nM incubated for 72 hrs in presence of daclolisib by CCK-8 assay; format: functional; settings: read-out: Activity
[13] = tested on: von Hippel-Lindau disease tumor suppressor/GTPase KRas (Homo sapiens), P01116+P40337 [G12C]; experiment: PROTAC activity at VHL/KRAS G12C mutant in human NCI-H358 cells assessed as inhibition of ERK phosphorylation incubated for 48 hrs by Western blotting analysis; format: cell-based; settings: dose 10-10000 nM
[14] = tested on: von Hippel-Lindau disease tumor suppressor/GTPase KRas (Homo sapiens), P01116+P40337 [G12C]; experiment: PROTAC activity at VHL/KRAS G12C mutant in human NCI-H358 cells assessed as induction of protein degradation at 300 nM incubated for 24 hrs by Western blotting analysis relative to control; format: cell-based
MIA PaCa-2 [15] = experiment: Induction of cell cycle arrest in human MIA PaCa-2 cells assessed as accumulation of cells at G2/M phase incubated for 48 hrs by propidium iodide staining based flow cytometry analysis; format: functional; settings: dose 30-300 nM
SW837 [16] = experiment: Antiproliferative activity against human SW837 cells expressing KRAS G12C mutant assessed as relative cell viability at 30 nM incubated for 72 hrs in presence of MK-2206 by CCK-8 assay; format: functional; settings: read-out: Activity
MIA PaCa-2 [17] = experiment: Antiproliferative activity against human MIA PaCa-2 cells expressing KRAS G12C mutant assessed as relative cell viability at 30 nM incubated for 72 hrs in presence of naporafenib by CCK-8 assay; format: functional; settings: read-out: Activity
Calu-1 [18] = experiment: Antiproliferative activity against human Calu-1 cells expressing KRAS G12C mutant assessed as relative cell viability at 30 nM incubated for 72 hrs in presence of crizotinib by CCK-8 assay; format: functional; settings: read-out: Activity
[19] = tested on: von Hippel-Lindau disease tumor suppressor/GTPase KRas (Homo sapiens), P01116+P40337 [G12C]; experiment: PROTAC activity at VHL/KRAS G12C mutant in human MIA PaCa-2 cells assessed as induction of protein degradation at 100 nM incubated for 1 to 8 days by Western blotting analysis; format: cell-based; settings: time 1-8 day
Calu-1 [20] = experiment: Antiproliferative activity against human Calu-1 cells expressing KRAS G12C mutant assessed as relative cell viability at 30 nM incubated for 72 hrs in presence of MK-2206 by CCK-8 assay; format: functional; settings: read-out: Activity
NCI-H358 [21] = experiment: Inhibition of colony formation in human NCI-H358 cells expressing KRAS G12C mutant assessed as reduction in cell number at 30 nM incubated for 14 days in presence of SHP099 by crystal violet staining based analysis; format: functional; settings: time 14.0 day
[22] = tested on: von Hippel-Lindau disease tumor suppressor/GTPase KRas (Homo sapiens), P01116+P40337 [G12C]; experiment: PROTAC activity at VHL/KRAS G12C mutant in human MIA PaCa-2 cells assessed as inhibition of ERK phosphorylation by Western blotting analysis; format: cell-based
SW837 [23] = experiment: Antiproliferative activity against human SW837 cells expressing KRAS G12C mutant assessed as relative cell viability at 30 nM incubated for 72 hrs in presence of infigratinib by CCK-8 assay; format: functional; settings: read-out: Activity
MIA PaCa-2 [24] = experiment: Inhibition of cell migration in human MIA PaCa-2 cells incubated for 12 hrs by wound healing assay; format: functional, cell-based; settings: dose 30-300 nM
NCI-H358 [25] = experiment: Synergistic antiproliferative activity against human NCI-H358 cells expressing KRAS G12C mutant assessed as combination index incubated for 72 hrs in presence of linsitinib by CCK-8 assay; format: functional
[26] = tested on: von Hippel-Lindau disease tumor suppressor/GTPase KRas (Homo sapiens), P01116+P40337 [G12C]; experiment: PROTAC activity at VHL/KRAS G12C mutant in human NCI-H358 cells assessed as induction of protein degradation at 100 nM incubated for 48 hrs followed by compound washout by Western blotting analysis; format: cell-based
[27] = Cytotoxicity against HEK293T cells assessed as inhibition of cell growth incubated for 72 hrs by CCK-8 assay; format: toxicity, cell-based, HEK-293T; settings: human
[28] = tested on: von Hippel-Lindau disease tumor suppressor/GTPase KRas (Homo sapiens), P01116+P40337 [G12C]; experiment: (§1) PROTAC activity at VHL/KRAS G12C mutant in human MIA PaCa-2 cells assessed as induction of protein degradation by Western blotting analysis; format: cell-based
[29] = target: von Hippel-Lindau disease tumor suppressor/GTPase KRas (Homo sapiens, UniProt P01116+P40337, G12C); experiment: as §1; format: cell-based
Chain of von Hippel-Lindau disease tumor suppressor/GTPase KRas (P01116 whole entry G12C, stated change not applied): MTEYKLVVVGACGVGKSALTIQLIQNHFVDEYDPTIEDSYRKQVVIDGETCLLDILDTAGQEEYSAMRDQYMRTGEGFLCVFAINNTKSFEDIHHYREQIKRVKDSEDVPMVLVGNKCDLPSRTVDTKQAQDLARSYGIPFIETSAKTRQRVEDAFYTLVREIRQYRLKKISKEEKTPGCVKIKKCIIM
Chain of von Hippel-Lindau disease tumor suppressor/GTPase KRas (P40337 whole entry, stated change not applied): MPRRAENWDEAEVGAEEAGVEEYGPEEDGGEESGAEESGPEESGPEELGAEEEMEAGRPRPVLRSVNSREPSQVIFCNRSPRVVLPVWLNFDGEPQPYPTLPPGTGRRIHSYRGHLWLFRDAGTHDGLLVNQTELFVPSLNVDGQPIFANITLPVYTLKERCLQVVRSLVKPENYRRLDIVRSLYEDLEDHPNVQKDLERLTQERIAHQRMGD

NCI-H358 [30] = experiment: Induction of apoptosis in human NCI-H358 cells assessed as late apoptotic cells at 300 nM incubated for 48 hrs by Annexin V-FITC staining based flow cytometry analysis (reference value: 5.20 %); format: functional
[31] = Clearance in ICR mouse at 2 mg/kg, iv measured after 24 hrs by LC-MS/MS analysis; format: ADME, organism-based; settings: in vivo
[32] = tested on: von Hippel-Lindau disease tumor suppressor/GTPase KRas (Homo sapiens), P01116+P40337 [G12C]; experiment: PROTAC activity at VHL/KRAS G12C mutant in human NCI-H358 cells assessed as induction of protein degradation at 300 nM incubated for 6 hrs by Western blotting analysis relative to control; format: cell-based
MIA PaCa-2 [33] = experiment: Induction of apoptosis in human MIA PaCa-2 cells assessed as late apoptotic cells at 100 nM incubated for 48 hrs by Annexin V-FITC staining based flow cytometry analysis (reference value: 5.69 %); format: functional

C=CC(=O)N1CCN(c2nc(=O)n(-c3c(C)ccnc3C(C)C)c3nc(-c4c(F)cccc4OCC4CCN(CCCC(=O)N[C@H](C(=O)N5C[C@H](O)C[C@H]5C(=O)NCc5ccc(-c6scnc6C)cc5)C(C)(C)C)CC4)c(F)cc23)[C@@H](C)C1
Activity (MIA PaCa-2 [1]): 6.73% | Activity [2]: inactive | viability at 0.03 µM (Calu-1 [3]): 0.12% | viability at 0.03 µM (Calu-1 [4]): 0.13% | viability at 0.03 µM (NCI-H358 [5]): 0.36% | Activity (NCI-H358 [6]): 1.12% | Activity [7]: inactive | viability at 0.03 µM (NCI-H23 [8]): 0.34% | Cmax [9]: 6460 ng/mL | viability at 0.03 µM (Calu-1 [10]): 77% | viability at 0.03 µM (NCI-H358 [11]): 0.29% | viability at 0.03 µM (NCI-H23 [12]): 0.23% | Activity [13]: Dose-Dependent Effect | Activity [14]: 100% | Activity (MIA PaCa-2 [15]): Dose-Dependent Effect | viability at 0.03 µM (SW837 [16]): 0.34% | viability at 0.03 µM (MIA PaCa-2 [17]): 0.27% | viability at 0.03 µM (Calu-1 [18]): 0.31% | Activity [19]: Active | viability at 0.03 µM (Calu-1 [20]): 0.32% | inhibition (NCI-H358 [21]): Active | Activity [22]: Dose-Dependent Effect | viability at 0.03 µM (SW837 [23]): 0.34% | inhibition (MIA PaCa-2 [24]): Dose-Dependent Effect | CI (NCI-H358 [25]): <1 | Activity [26]: Active | IC50 at 72 h [27]: > 10000 nM | Activity [28]: Dose-Dependent Effect | DC50 [29]: 28 nM | Activity (NCI-H358 [30]): 14.6% | clearance [31]: 84.2 mL/min/kg | Activity [32]: 50% | Activity (MIA PaCa-2 [33]): 13.4%
